From patent US8138168B1 (Takeda Pharmaceutical Company Limited, priority 2007, dated 2012) come the findings set out here.

The structures appear in SMILES notation.

For this assay, the target named is T1, Recombinant human renin (Homo sapiens, UniProt P00797).
T1 construct: isolate the active form (residues 67-406); made in house; host or cells: FreeStyle 293-F cells (transient expression of pcDNA3.1(+)/hREN)
T1 sequence (P00797 67-406): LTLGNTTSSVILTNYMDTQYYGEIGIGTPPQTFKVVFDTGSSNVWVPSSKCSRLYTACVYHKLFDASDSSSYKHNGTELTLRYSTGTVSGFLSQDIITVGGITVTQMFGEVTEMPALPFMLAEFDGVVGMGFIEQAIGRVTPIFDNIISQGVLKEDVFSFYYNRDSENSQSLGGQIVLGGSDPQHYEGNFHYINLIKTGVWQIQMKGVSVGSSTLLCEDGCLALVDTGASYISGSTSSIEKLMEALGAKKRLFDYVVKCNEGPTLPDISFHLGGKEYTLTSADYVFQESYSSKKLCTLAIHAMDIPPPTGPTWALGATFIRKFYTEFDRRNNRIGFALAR
Nature of the assay: In vitro enzymatic activity assay of renin inhibitors (fluorogenic peptide substrate). In kind it is biochemical. The following applies: read-out: IC50 of Exemplified Compounds Against Renin. The procedure: Test compounds in varying concentrations may be reacted with recombinant human renin in the presence of substrate, e.g., QXL520-γ-Abu-[…](HiLyteFluo488)-Arg-OH (Anaspec, San Jose, Calif.). […] Inhibition constants (IC50) may be calculated by non-linear curve fitting of the compound concentrations and fluorescence intensities to the standard IC50 equation.
Solutions of test compounds in varying concentrations mM final concentration) are prepared in dimethyl sulfoxide (DMSO) and then diluted into assay buffer comprising 50 mM Hepes, 1 mM EDTA, 1 mM DTT, 0.1 mg/mL BSA, 0.01% Brij35, pH 7.4. Alternatively, the assay can be performed with a high BSA concentration, wherein the buffer contains an additional 2% BSA.
Recombinant human renin (3 nM final concentration) is added to the dilutions and pre-incubated with the compounds for 10 minutes at 37° C. […] After pre-incubation, the reaction is initiated with of substrate QXL520-γ-Abu-[…](HiLyteFluo488)-Arg-OH (Anaspec, San Jose, Calif.). The final DMSO in the assay is 5%. The total volume of the reaction mixture is 20 μL, which can be placed on Greiner 384-well small volume plates.
The fluorescence intensity is determined upon the addition of substrate and determined again after incubation at 37° C. for one hour. The fluorescence intensity of a blank (no inhibition) using vehicle alone is also determined. Renin activity is linearly proportional to the change in fluorescence observed (final-initial).
Consider `COCCCn1c([C@@H]2CCCN(C(=O)CC(O)Cc3ccc(-c4ccccc4)cc3)C2)nc2ccccc21` (stereo in doubt) [Compound 73, (R)-4-(Biphenyl-4-yl)-3-hydroxy-1-(3-(1-(3-methoxypropyl)-1H-benzo[d]imidazol-2-yl)piperidin-1-yl)butan-1-one], for which the half-maximal inhibitory concentration (IC50) was 100 to 1000 nM.

`Cc1ccc(NC(=O)N2CCCC(c3nc4ccccc4[nH]3)C2)cc1Cl` (stereo not drawn) [Compound 1, 3-(1H-Benzo[d]imidazol-2-yl)-N-(3-chloro-4-methylphenyl)piperidine-1-carboxamide]: the half-maximal inhibitory concentration (IC50) was more than 1000 nM.

With `O=C(NCc1ccccc1)N1CCCC(c2nc3ccccc3[nH]2)C1` (stereo not drawn) [Compound 3], the IC50 was more than 1000 nM.

Regarding `O=C(Nc1ccc2ccccc2c1)N1CCCC(c2nc3ccccc3[nH]2)C1` (stereo not drawn) [Compound 4, 3-(1H-benzo[d]imidazol-2-yl)-N-(naphthalen-2-yl)piperidine-1-carboxamide], the IC50 is more than 1000 nM.

Take `O=C(NC(=O)N1CCCC(c2nc3ccccc3[nH]2)C1)c1ccccc1` (stereo not drawn) [Compound 5, 3-(1H-benzo[d]imidazol-2-yl)-N-benzoylpiperidine-1-carboxamide]: the IC50 was more than 1000 nM.

As for `Cc1cc(C)cc(NC(=O)N2CCCC(c3nc4ccccc4[nH]3)C2)c1` (stereo not drawn) [Compound 6, 3-(1H-benzo[d]imidazol-2-yl)-N-(3,5-dimethylphenyl)piperidine-1-carboxamide], the IC50 is more than 1000 nM.

On to `O=C(Nc1ccc(Cl)c(C(F)(F)F)c1)N1CCCC(c2nc3ccccc3[nH]2)C1` (stereo not drawn) [Compound 7, 3-(1H-benzo[d]imidazol-2-yl)-N-(4-chloro-3-(trifluoromethyl)phenyl)piperidine-1-carboxamide], for which the IC50 is more than 1000 nM.

`O=C(Nc1ccccc1)N1CCCC(c2nc3ccccc3[nH]2)C1` (stereo not drawn) [Compound 8, 3-(1H-benzo[d]imidazol-2-yl)-N-phenylpiperidine-1-carboxamide]: the IC50 was more than 1000 nM.

Regarding `O=C(Nc1ccc2c(c1)CCC2)N1CCCC(c2nc3ccccc3[nH]2)C1` (stereo not drawn) [Compound 9, 3-(1H-benzo[d]imidazol-2-yl)-N-(2,3-dihydro-1H-inden-5-yl)piperidine-1-carboxamide], the IC50 is more than 1000 nM.

For the compound `O=C(NC1CCCCC1)N1CCCC(c2nc3ccccc3[nH]2)C1` (stereo not drawn) [Compound 10, 3-(1H-benzo[d]imidazol-2-yl)-N-cyclohexylpiperidine-1-carboxamide], the IC50 was more than 1000 nM.

On to `O=C(Nc1ccc2c(c1)OCO2)N1CCCC(c2nc3ccccc3[nH]2)C1` (stereo not drawn) [Compound 11, N-(benzo[d][1,3]dioxol-5-yl)-3-(1H-benzo[d]imidazol-2-yl)piperidine-1-carboxamide], for which the IC50 is more than 1000 nM.

For `COC(=O)[C@H](Cc1ccccc1)NC(=O)N1CCCC(c2nc3ccccc3[nH]2)C1` (stereo partly drawn) [Compound 12, (2S)-methyl 2-(3-(1H-benzo[d]imidazol-2-yl)piperidine-1-carboxamido)-3-phenylpropanoate], the IC50 was more than 1000 nM.

`COC(=O)[C@@H](Cc1ccccc1)NC(=O)N1CCCC(c2nc3ccccc3[nH]2)C1` (stereo partly drawn) [Compound 13, (2R)-methyl 2-(3-(1H-benzo[d]imidazol-2-yl)piperidine-1-carboxamido)-3-phenylpropanoate]: the half-inhibitory concentration (IC50) is more than 1000 nM.

Consider `CCOC(=O)CCNC(=O)N1CCCC(c2nc3ccccc3[nH]2)C1` (stereo not drawn) [Compound 14, ethyl 3-(3-(1H-benzo[d]imidazol-2-yl)piperidine-1-carboxamido)propanoate], for which the IC50 is more than 1000 nM.

`O=C(Nc1ccc2c(c1)OCCO2)N1CCCC(c2nc3ccccc3[nH]2)C1` (stereo not drawn) [Compound 15, 3-(1H-benzo[d]imidazol-2-yl)-N-(2,3-dihydrobenzo[b][1,4]dioxin-6-yl)piperidine-1-carboxamide]: the IC50 was more than 1000 nM.

Regarding `O=C(Nc1ccccc1-c1ccccc1)N1CCCC(c2nc3ccccc3[nH]2)C1` (stereo not drawn) [Compound 16, 3-(1H-benzo[d]imidazol-2-yl)-N-(biphenyl-2-yl)piperidine-1-carboxamide], the IC50 was more than 1000 nM.

Regarding `CCCNC(=O)N1CCCC(c2nc3ccccc3[nH]2)C1` (stereo not drawn) [Compound 17, 3-(1H-benzo[d]imidazol-2-yl)-N-propylpiperidine-1-carboxamide], the IC50 is more than 1000 nM.

With `S=C(Nc1cccc2nsnc12)N1CCCC(c2nc3ccccc3[nH]2)C1` (stereo not drawn) [Compound 18, N-(benzo[c][1,2,5]thiadiazol-4-yl)-3-(1H-benzo[d]imidazol-2-yl)piperidine-1-carboxthioamide], the IC50 was more than 1000 nM.

Regarding `COC(=O)[C@H](CC(C)C)NC(=O)N1CCCC(c2nc3ccccc3[nH]2)C1` (stereo partly drawn) [Compound 19, (2S)-methyl 2-(3-(1H-benzo[d]imidazol-2-yl)piperidine-1-carboxamido)-4-methylpentanoate], the IC50 was more than 1000 nM.

`O=C(Nc1cccnc1)N1CCCC(c2nc3ccccc3[nH]2)C1` (stereo not drawn) [Compound 20, 3-(1H-benzo[d]imidazol-2-yl)-N-(pyridin-3-yl)piperidine-1-carboxamide]: the IC50 is more than 1000 nM.

For the compound `O=C(NCc1ccco1)N1CCCC(c2nc3ccccc3[nH]2)C1` (stereo not drawn) [Compound 21, 3-(1H-benzo[d]imidazol-2-yl)-N-(furan-2-ylmethyl)piperidine-1-carboxamide], the IC50 was more than 1000 nM.

For `N[C@@H](CC(=O)N1CCCC(c2nc3ccccc3[nH]2)C1)Cc1ccc(Cl)cc1` (stereo partly drawn) [Compound 23, (3R)-1-(3-(1H-Benzo[d]imidazol-2-yl)piperidin-1-yl)-3-amino-4-(4-chlorophenyl)butan-1-one], the IC50 was more than 1000 nM.

As for `COCCCn1c(C2CCCN(C(=O)C[C@H](N)Cc3ccc(Cl)cc3)C2)nc2ccccc21` (stereo partly drawn) [Compound 24, (3R)-3-amino-4-(4-chlorophenyl)-1-(3-(1-(3-methoxypropyl)-1H-benzo[d]imidazol-2-yl)piperidin-1-yl)butan-1-one], the IC50 was 100 to 1000 nM.

Take `N[C@@H](CC(=O)N1CCCC(c2nc3ccccc3[nH]2)C1)c1ccc(C(F)(F)F)cc1` (stereo partly drawn) [Compound 25, (3S)-1-(3-(1H-benzo[d]imidazol-2-yl)piperidin-1-yl)-3-amino-3-(4-(trifluoromethyl)phenyl)propan-1-one]: the IC50 was more than 1000 nM.

For `N[C@@H](CC(=O)N1CCCC(c2nc3ccccc3[nH]2)C1)c1ccccc1[N+](=O)[O-]` (stereo partly drawn) [Compound 26, (3S)-1-(3-(1H-benzo[d]imidazol-2-yl)piperidin-1-yl)-3-amino-3-(2-nitrophenyl)propan-1-one], the IC50 is more than 1000 nM.

As to `N[C@@H](CC(=O)N1CCCC(c2nc3ccccc3[nH]2)C1)Cc1ccccc1Cl` (stereo partly drawn) [Compound 27, (3R)-1-(3-(1H-benzo[d]imidazol-2-yl)piperidin-1-yl)-3-amino-4-(2-chlorophenyl)butan-1-one], the IC50 was more than 1000 nM.

On to `COc1cccc([C@@H](N)CC(=O)N2CCCC(c3nc4ccccc4[nH]3)C2)c1OC` (stereo partly drawn) [Compound 28, (3S)-1-(3-(1H-benzo[d]imidazol-2-yl)piperidin-1-yl)-3-amino-3-(2,3-dimethoxyphenyl)propan-1-one], for which the 50% inhibitory concentration (IC50) is more than 1000 nM.

Consider `N[C@@H](CC(=O)N1CCCC(c2nc3ccccc3[nH]2)C1)Cc1csc2ccccc12` (stereo partly drawn) [Compound 29, (3R)-1-(3-(1H-benzo[d]imidazol-2-yl)piperidin-1-yl)-3-amino-4-(benzo[b]thiophen-3-yl)butan-1-one], for which the half-inhibitory concentration (IC50) is more than 1000 nM.

Take `N[C@@H](CC(=O)N1CCCC(c2nc3ccccc3[nH]2)C1)c1cccc(Cl)c1` (stereo partly drawn) [Compound 30, (3S)-1-(3-(1H-benzo[d]imidazol-2-yl)piperidin-1-yl)-3-amino-3-(3-chlorophenyl)propan-1-one]: the IC50 was more than 1000 nM.

In the case of `COc1cc(OC)cc([C@@H](N)CC(=O)N2CCCC(c3nc4ccccc4[nH]3)C2)c1` (stereo partly drawn) [Compound 31, (3S)-1-(3-(1H-benzo[d]imidazol-2-yl)piperidin-1-yl)-3-amino-3-(3,5-dimethoxyphenyl)propan-1-one], the IC50 was more than 1000 nM.

Turning to `N[C@H](CCc1ccccc1)CC(=O)N1CCCC(c2nc3ccccc3[nH]2)C1` (stereo partly drawn) [Compound 32, (3R)-1-(3-(1H-benzo[d]imidazol-2-yl)piperidin-1-yl)-3-amino-5-phenylpentan-1-one], the half-inhibitory concentration (IC50) was more than 1000 nM.

As for `N[C@@H](CC(=O)N1CCCC(c2nc3ccccc3[nH]2)C1)c1ccc([N+](=O)[O-])cc1` (stereo partly drawn) [Compound 33, (3S)-1-(3-(1H-benzo[d]imidazol-2-yl)piperidin-1-yl)-3-amino-3-(4-nitrophenyl)propan-1-one], the IC50 was more than 1000 nM.

With `N[C@@H](CC(=O)N1CCCC(c2nc3ccccc3[nH]2)C1)Cc1ccc(Br)cc1` (stereo partly drawn) [Compound 34, (3R)-1-(3-(1H-benzo[d]imidazol-2-yl)piperidin-1-yl)-3-amino-4-(4-bromophenyl)butan-1-one], the IC50 was more than 1000 nM.

The term IC50 denotes the point on the concentration scale where inhibition reaches its midpoint.
